According to patent US20250115628A1, “FLUORINATED FLUOROPHORES” (HOWARD HUGHES MEDICAL INSTITUTE, priority 2023, published 2025):

Assays:
Assay type in all cases: cell-based
[1] = target: T1, U2OS cells stably expressing HaloTag®-histone H2B fusion protein (Rhodococcus rhodochrous, UniProt P0A3G2, A155T/A167V/A172T/A224E/C128F/C176G/D78G/E160K/E257K/H272N/K175M/K195N/L47V/L88M/N227D/P291S/S58T/T264A/Y273L/Y87F); assay: Labeling and confocal microscopy using ligands 59HTL and 105HTL; settings: 200 nM, 1 h, washed
T1 construct: expressed in transfected cells
T1 sequence (P0A3G2 other isoform, or with tags, fused parts or gaps with the stated changes): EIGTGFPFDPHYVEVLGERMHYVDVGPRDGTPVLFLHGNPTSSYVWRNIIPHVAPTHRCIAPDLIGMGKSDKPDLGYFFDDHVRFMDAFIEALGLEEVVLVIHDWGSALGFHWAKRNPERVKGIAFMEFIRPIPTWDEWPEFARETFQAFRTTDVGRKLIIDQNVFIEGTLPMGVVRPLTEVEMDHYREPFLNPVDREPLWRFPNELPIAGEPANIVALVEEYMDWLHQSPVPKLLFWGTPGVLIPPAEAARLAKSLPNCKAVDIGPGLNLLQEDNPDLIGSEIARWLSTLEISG
Description: (§1) U2OS cells (ATCC) and U2OS cells stably expressing an integrated HaloTag®-histone H2B fusion protein (U2OS·H2B·HaloTag®) were cultured in Dulbecco's modified Eagle medium (DMEM, phenol red-free; Life Technologies) supplemented with 10% (v/v) fetal bovine serum (FBS, Life Technologies), 1 mM GlutaMAX (Life Technologies) and maintained at 37° C. in a humidified 5% (v/v) CO2 environment. These cell lines undergo regular mycoplasma testing by the Janelia Cell Culture Facility. For mitochondrial imaging using the HaloTag® system, U2OS cells were transiently transfected using nucleofection (Lonza) with a plasmid constitutively expressing a HaloTag®-TOMM20 fusion protein, which is located on the outer mitochondrial membrane. For 4^−color imaging, U2OS·H2B·HaloTag® stable cells were transiently transfected by nucleofection with plasmids constitutively expressing a SNAP-tag®-TOMM20 fusion protein, and a GFP-SKL (SKL: serine-lysine-leucine) fusion protein, a prototypical peroxisomal matrix targeting signal. All labeled cells were imaged 18-24 h post-transfection or post-plating. […]

[2] = test system: U2OS cells stably expressing HaloTag®-histone H2B fusion protein; assay: Loading experiments with NIR-excited HaloTag® ligands (nuclear fluorescence); settings: 200 nM; live cells expressing HaloTag®-histone H2B; excited at λabs
Description: U2OS cells (ATCC) and U2OS cells stably expressing an integrated HaloTag®-histone H2B fusion protein (U2OS·H2B·HaloTag®) were cultured in Dulbecco's modified Eagle medium (DMEM, phenol red-free; Life Technologies) supplemented with 10% (v/v) fetal bovine serum (FBS, Life Technologies), 1 mM GlutaMAX (Life Technologies) and maintained at 37° C. in a humidified 5% (v/v) CO2 environment. These cell lines undergo regular mycoplasma testing by the Janelia Cell Culture Facility. For mitochondrial imaging using the HaloTag® system, U2OS cells were transiently transfected using nucleofection (Lonza) with a plasmid constitutively expressing a HaloTag®-TOMM20 fusion protein, which is located on the outer mitochondrial membrane. For 4^−color imaging, U2OS·H2B·HaloTag® stable cells were transiently transfected by nucleofection with plasmids constitutively expressing a SNAP-tag®-TOMM20 fusion protein, and a GFP-SKL (SKL: serine-lysine-leucine) fusion protein, a prototypical peroxisomal matrix targeting signal. All labeled cells were imaged 18-24 h post-transfection or post-plating.
For loading curve experiments (FIG. 15C), U2OS·H2B·HaloTag® stable cells were incubated with 200 nM HaloTag® ligand conjugated dyes (31HTL, 36HTL, 38HTL, 104HTL, 106HTL, 107HTL, and 108HTL) for 0-4 h at 37° C., washed 3× with dye-free media then fixed with 4% paraformaldehyde in 0.1 M phosphate buffer, pH 7.4 for 15 min at 37° C. Confocal imaging was performed on a Leica Stellaris with an HC PL APO 40×/1.25 glycerol objective using the tunable white light laser (WLL) to excite dyes at their λabs in constant power mode. Fluorescence was quantified as the integrated density of nuclear signals in single-plane images analyzed in FIJI;^82 n=100 nuclear signals per compound.

[3] = test system: U2OS cells stably expressing HaloTag®-histone H2B fusion protein; assay: Photostability experiments in fixed cells; settings: 200 nM; 30 bleach cycles
Description: as §1, with “membrane.” for “membrane. For 4^−color imaging, U2OS·H2B·HaloTag® stable cells were transiently transfected by nucleofection with plasmids constitutively expressing a SNAP-tag®-TOMM20 fusion protein, and a GFP-SKL (SKL: serine-lysine-leucine) fusion protein, a prototypical peroxisomal matrix targeting signal. All labeled cells were imaged 18-24 h post-transfection or post-plating.”
For photostability experiments (FIG. 1611), U2OS·H2B·HaloTag® stable cells were incubated with 200 nM HaloTag® ligands (31HTL, 106HTL, and 107HTL) for 3 h at 37° C., washed 3× with dye-free media then fixed with 4% paraformaldehyde in 0.1 M phosphate buffer, pH 7.4 for 15 min at 37° C. […] To measure photobleaching, the tunable white light laser (WLL) was used to excite dyes at their λabs in constant power mode over 30 cycles; n=3 where n indicates the number of separate cellular experiments where the intensity of the entire field of view was measured at the indicated time points. […]

[4] = test system: JM8·N4 mouse embryonic stem cells stably expressing histone H2B-HaloTag® fusion proteins; assay: Single-particle tracking (SPT) experiments; settings: 100 Hz imaging
Description: SPT experiments were carried out as previously described.^84 JM8·N4 mouse embryonic stem cells (ESCs) stably expressing histone H2B-HaloTag® fusion proteins were generated by co-expressing the PiggyBac EF1a-H2B-HaloTag®-IRES-Neo vector with the super piggyBac transposase as described previously,85 followed by G418 selection (500 μg/mL) for 2 weeks and verified by FACS sorting/confocal imaging staining with JF549-HaloTag® ligand (84HTL; 100 nM, 30 min). Cells were seeded on 25 mm #1.5 coverglass pre-cleaned with KOH and ethanol and coated with iMatrix-511 (TaKaRa #T304) or rhLaminin-521 (Gibco™ #A^29248) according to the manufacturers' instruction. All live-cell imaging experiments were conducted using an ESC imaging medium composed of FluoroBrite DMEM (ThermoFisher) plus 15% v/v ESC-qualified FBS, 1× GlutaMax, 1×NEAA, 0.1 mM 2^−mercaptoethanol, and LIF. For comparison of 59HTL and 89HTL (FIG. 13E, 13F) the histone H2B-HaloTag® ESCs were stained with 5 nM 59HTL for 1 h or 0.1 nM 89HTL for 15 min at 37° C. with 5% (v/v) CO2 to achieve sparse labeling with approximately equal localizations per region of interest (ROI), and then washed with dye-free media 3× for 30 min each wash For comparison of 40HTL, 44HTL, 1HTL, or 89HTL (FIG. 12A-12G) the histone H2B-HaloTag® ESCs were stained with 1 nM of HaloTag® ligands for 15 min at 37° C. with 5% (v/v) CO2 to achieve sparse labeling, and then washed with dye-free media 3× for 30 min each wash.
To quantify the brightness and photostability of the HaloTag® ligands, labeled cells were mounted onto a high speed motorized Nikon Eclipse Ti-E inverted microscope equipped with the following: 100× Apo TIRF 1.49 NA objective with a correction collar; four excitation laser lines (405/488/561/642 nm) and matching TIRF quad cube (405/488/561/640 nm reflection bands); automatic TIRF illuminator with motorized X axis and manual Y axis for beam positioning and focus: perfect focus 3 system; Triple DU-897 iXon Ultra EMCCD cameras on a Cairn Tri-cam emission splitter with filters 525/50 (GFP) 600/50 (RFP) and 705/72 (Cy5); humidified incubation chamber maintained at 37° C. with 5% v/v CO2 (Tokai Hit). SPT was performed at 100 Hz for the comparison of 59HTL and 89HTL (FIG. 13E, 13F) and 50 Hz for the comparison of 40HTL, 44HTL, 1HTL, or 89HTL (FIG. 12A-12G); the imaging session was performed for ˜5000 frames using 100% of maximal excitation power (˜120 mW at the fiber end before the TIRF unit). […] For the comparison of HaloTag® ligands 59HTL and 89HTL (FIG. 13E, 13F) and the comparison of compounds 40HTL, 44HTL, 1HTL, and […] (FIG. 12A-12G), the fluorophores were excited with a 647 nm laser. To minimize drift during imaging, the incubation chamber was fully thermally equilibrated, and all imaging was conducted in an isolated ultra-clean room with minimal mechanical vibrations. The microscope, laser lines, and camera integration were controlled using the Nikon NIS-Elements software. Cells with obvious movement during acquisition were removed from further analysis. SMT analysis was based on multiple target tracing 86 (MTT) with tracking parameters similar to previous work.^84 For SPT brightness (photon counts/molecule/s), intensity values from sparsely-labeled molecules were analyzed. For the comparison of HaloTag® ligands 59HTL and 89HTL (FIG. 13E, 13F): n=147,298 single-molecule events using 59HTL; n=100,392 single-molecule events using 89HTL. […]

Compound	nuclear labeling of histone H2B-HaloTag® in live cells [1]	nuclear intensity compared to the other ligands [2] [fold]	brightness and photostability compared with 107HTL and 106HTL [3]	SPT brightness (photons/s) compared with 89HTL [4]	SPT localizations over time [4]
ATTO 647N-HaloTag® ligand [105HTL, reference compound]	does not show appreciable labeling in the nucleus	–	–	–	–
CCc1cc2c(c3c1=[N+](C)CCC3)[Si](C)(C)c1c(cc3c4c1CCCN4CCC3)C=2c1c(F)c(C(=O)NCCOCCOCCCCCCCl)c(F)c(F)c1C(=O)[O-] [31HTL, JF698-HaloTag® ligand]	–	> 3	brighter and more photostable	–	–
CCc1cc2c(c3c1=[N+](C)CCC3)C(C)(C)c1cc3c(cc1C=2c1c(F)c(C(=O)NCCOCCOCCCCCCCl)c(F)c(F)c1C(=O)[O-])C(C)CC(C)(C)N3CC (stereo not drawn) [59HTL, JF657-HaloTag® ligand]	excellent nuclear staining with little cellular background after washing	–	–	significant improvement in brightness	consistent localizations over time
